Source: patent US20230017045A1, “PYRIDINE AND PYRIMIDINE CARBOXYLATE HERBICIDES AND METHODS OF USE THEREOF” (Dow AgroSciences LLC, priority 2017, published 2023)

test system: test plant species; test: Post-emergent herbicidal activity test (greenhouse, foliar spray, visual growth reduction); type: in vivo; details: post-emergence, 336 h, ECHCG: barnyardgrass (Echinochloa crus-galli), 140 g ai/ha, 14 days after application, read-out: Visual Growth Reduction (%) 14 Days After Application, ECHCG
Outline: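 Visual scoring 14 d after treatment (0 = no injury, 100 = complete control) against nontreated and solvent-blank plants gave percent growth reduction. Foliar application used a track sprayer delivering 187 L/ha to seedlings at first or second true leaf stage, grown at 23–29 °C day, ~15 h photoperiod.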

First: O=C(O)c1nc(-c2ccc(C(F)(F)F)cc2Cl)ccc1[N+](=O)[O-] [F252, 6-(2-Chloro-4-(trifluoromethyl)phenyl)-3-nitropicolinic acid]
Second: COC(=O)c1nc(-c2ccc(OC(F)F)cc2F)c(F)cc1Cl [F221, Methyl 3-chloro-6-(4-(difluoromethoxy)-2-fluorophenyl)-5-fluoropicolinate]
The pest or weed control at 140 g/ha of the first is lower: 0 to 29% for the first, 85 to 94% for the second.

COC(=O)c1nc(-c2ccc(F)c3c2OC(F)(F)O3)c(F)cc1Cl [F234, Methyl 3-chloro-5-fluoro-6-(2,2,7-trifluorobenzo[d][1,3]dioxol-4-yl)picolinate] showed a pest or weed control at 140 g/ha of 0 to 29%.

same assay, conditions: post-emergence, 336 h, IPOHE: ivy-leaf morning glory (Ipomoea hederacea), 140 g ai/ha, 14 days after application, read-out: Visual Growth Reduction (%) 14 Days After Application, IPOHE

First: O=C(O)c1nc(-c2ccc(C(F)(F)F)cc2Cl)ccc1[N+](=O)[O-] [F252, 6-(2-Chloro-4-(trifluoromethyl)phenyl)-3-nitropicolinic acid]
Second: COC(=O)c1nc(-c2ccc(OC(F)F)cc2F)c(F)cc1Cl [F221, Methyl 3-chloro-6-(4-(difluoromethoxy)-2-fluorophenyl)-5-fluoropicolinate]
The pest or weed control at 140 g/ha of the first is lower: 30 to 44% for the first, 95 to 100% for the second.

For COC(=O)c1nc(-c2ccc(F)c3c2OC(F)(F)O3)c(F)cc1Cl [F234, Methyl 3-chloro-5-fluoro-6-(2,2,7-trifluorobenzo[d][1,3]dioxol-4-yl)picolinate], the pest or weed control at 140 g/ha was 60 to 74%.

same assay, conditions: post-emergence, 336 h, KCHSC: kochia (Bassia scoparia), 140 g ai/ha, 14 days after application, read-out: Visual Growth Reduction (%) 14 Days After Application, KCHSC

Compared with O=C(O)c1nc(-c2ccc(C(F)(F)F)cc2Cl)ccc1[N+](=O)[O-] [F252, 6-(2-Chloro-4-(trifluoromethyl)phenyl)-3-nitropicolinic acid], COC(=O)c1nc(-c2ccc(OC(F)F)cc2F)c(F)cc1Cl [F221, Methyl 3-chloro-6-(4-(difluoromethoxy)-2-fluorophenyl)-5-fluoropicolinate] is higher in pest or weed control at 140 g/ha: 0 to 29% for the first, 85 to 94% for the second.

Work on COC(=O)c1nc(-c2ccc(F)c3c2OC(F)(F)O3)c(F)cc1Cl [F234, Methyl 3-chloro-5-fluoro-6-(2,2,7-trifluorobenzo[d][1,3]dioxol-4-yl)picolinate] yielded a pest or weed control at 140 g/ha of 0 to 29%.

same assay, conditions: post-emergence, 336 h, ORYSA: rice (Oryza sativa), 140 g ai/ha, 14 days after application, read-out: Visual Growth Reduction (%) 14 Days After Application, ORYSA

O=C(O)c1nc(-c2ccc(C(F)(F)F)cc2Cl)ccc1[N+](=O)[O-] [F252, 6-(2-Chloro-4-(trifluoromethyl)phenyl)-3-nitropicolinic acid] and COC(=O)c1nc(-c2ccc(OC(F)F)cc2F)c(F)cc1Cl [F221, Methyl 3-chloro-6-(4-(difluoromethoxy)-2-fluorophenyl)-5-fluoropicolinate] fall in the same range of pest or weed control at 140 g/ha: 0 to 29% for the first, 0 to 29% for the second.

For COC(=O)c1nc(-c2ccc(F)c3c2OC(F)(F)O3)c(F)cc1Cl [F234, Methyl 3-chloro-5-fluoro-6-(2,2,7-trifluorobenzo[d][1,3]dioxol-4-yl)picolinate], the pest or weed control at 140 g/ha was 0 to 29%.

same assay, conditions: post-emergence, 336 h, SETFA: giant foxtail (Setaria faberi), 140 g ai/ha, 14 days after application, read-out: Visual Growth Reduction (%) 14 Days After Application, SETFA

Compared with O=C(O)c1nc(-c2ccc(C(F)(F)F)cc2Cl)ccc1[N+](=O)[O-] [F252, 6-(2-Chloro-4-(trifluoromethyl)phenyl)-3-nitropicolinic acid], COC(=O)c1nc(-c2ccc(OC(F)F)cc2F)c(F)cc1Cl [F221, Methyl 3-chloro-6-(4-(difluoromethoxy)-2-fluorophenyl)-5-fluoropicolinate] is higher in pest or weed control at 140 g/ha: 0 to 29% for the first, 85 to 94% for the second.

Compound COC(=O)c1nc(-c2ccc(F)c3c2OC(F)(F)O3)c(F)cc1Cl [F234, Methyl 3-chloro-5-fluoro-6-(2,2,7-trifluorobenzo[d][1,3]dioxol-4-yl)picolinate] has a pest or weed control at 140 g/ha of 0 to 29%.

same assay, conditions: post-emergence, 336 h, SORVU: grain sorghum (Sorghum vulgare), 140 g ai/ha, 14 days after application, read-out: Visual Growth Reduction (%) 14 Days After Application, SORVU

First: O=C(O)c1nc(-c2ccc(C(F)(F)F)cc2Cl)ccc1[N+](=O)[O-] [F252, 6-(2-Chloro-4-(trifluoromethyl)phenyl)-3-nitropicolinic acid]
Second: COC(=O)c1nc(-c2ccc(OC(F)F)cc2F)c(F)cc1Cl [F221, Methyl 3-chloro-6-(4-(difluoromethoxy)-2-fluorophenyl)-5-fluoropicolinate]
The pest or weed control at 140 g/ha of the first is lower: 45 to 59% for the first, 95 to 100% for the second.

COC(=O)c1nc(-c2ccc(F)c3c2OC(F)(F)O3)c(F)cc1Cl [F234, Methyl 3-chloro-5-fluoro-6-(2,2,7-trifluorobenzo[d][1,3]dioxol-4-yl)picolinate] showed a pest or weed control at 140 g/ha of 0 to 29%.

same assay, conditions: post-emergence, 336 h, STEME: common chickweed (Stellaria media), 140 g ai/ha, 14 days after application, read-out: Visual Growth Reduction (%) 14 Days After Application, STEME

O=C(O)c1nc(-c2ccc(C(F)(F)F)cc2Cl)ccc1[N+](=O)[O-] [F252, 6-(2-Chloro-4-(trifluoromethyl)phenyl)-3-nitropicolinic acid] and COC(=O)c1nc(-c2ccc(OC(F)F)cc2F)c(F)cc1Cl [F221, Methyl 3-chloro-6-(4-(difluoromethoxy)-2-fluorophenyl)-5-fluoropicolinate] fall in the same range of pest or weed control at 140 g/ha: 0 to 29% for the first, 0 to 29% for the second.

For COC(=O)c1nc(-c2ccc(F)c3c2OC(F)(F)O3)c(F)cc1Cl [F234, Methyl 3-chloro-5-fluoro-6-(2,2,7-trifluorobenzo[d][1,3]dioxol-4-yl)picolinate], the pest or weed control at 140 g/ha was 0 to 29%.

same assay, conditions: post-emergence, 336 h, TRZAS: wheat, spring (Triticum aestivum), 140 g ai/ha, 14 days after application, read-out: Visual Growth Reduction (%) 14 Days After Application, TRZAS

First: O=C(O)c1nc(-c2ccc(C(F)(F)F)cc2Cl)ccc1[N+](=O)[O-] [F252, 6-(2-Chloro-4-(trifluoromethyl)phenyl)-3-nitropicolinic acid]
Second: COC(=O)c1nc(-c2ccc(OC(F)F)cc2F)c(F)cc1Cl [F221, Methyl 3-chloro-6-(4-(difluoromethoxy)-2-fluorophenyl)-5-fluoropicolinate]
The pest or weed control at 140 g/ha of the first is lower: 0 to 29% for the first, 75 to 84% for the second.

For COC(=O)c1nc(-c2ccc(F)c3c2OC(F)(F)O3)c(F)cc1Cl [F234, Methyl 3-chloro-5-fluoro-6-(2,2,7-trifluorobenzo[d][1,3]dioxol-4-yl)picolinate], the pest or weed control at 140 g/ha was 0 to 29%.

same assay, conditions: post-emergence, 336 h, blackgrass (Alopecurus myosuroides), 14 Days After Application, 140 g ai/ha, read-out: Visual Growth Reduction (%) ALOMY

Compared with O=C(O)c1nc(-c2ccc(C(F)(F)F)cc2Cl)ccc1[N+](=O)[O-] [F252, 6-(2-Chloro-4-(trifluoromethyl)phenyl)-3-nitropicolinic acid], COC(=O)c1nc(-c2ccc(OC(F)F)cc2F)c(F)cc1Cl [F221, Methyl 3-chloro-6-(4-(difluoromethoxy)-2-fluorophenyl)-5-fluoropicolinate] is higher in pest or weed control at 140 g/ha: 0 to 29% for the first, 75 to 84% for the second.

Compound COC(=O)c1nc(-c2ccc(F)c3c2OC(F)(F)O3)c(F)cc1Cl [F234, Methyl 3-chloro-5-fluoro-6-(2,2,7-trifluorobenzo[d][1,3]dioxol-4-yl)picolinate] has a pest or weed control at 140 g/ha of 0 to 29%.

same assay, conditions: post-emergence, 336 h, canada thistle (Cirsium arvense), 14 Days After Application, 140 g ai/ha, read-out: Visual Growth Reduction (%) CIRAR

First: O=C(O)c1nc(-c2ccc(C(F)(F)F)cc2Cl)ccc1[N+](=O)[O-] [F252, 6-(2-Chloro-4-(trifluoromethyl)phenyl)-3-nitropicolinic acid]
Second: COC(=O)c1nc(-c2ccc(OC(F)F)cc2F)c(F)cc1Cl [F221, Methyl 3-chloro-6-(4-(difluoromethoxy)-2-fluorophenyl)-5-fluoropicolinate]
The pest or weed control at 140 g/ha of the first is lower: 0 to 29% for the first, 95 to 100% for the second.

With COC(=O)c1nc(-c2ccc(F)c3c2OC(F)(F)O3)c(F)cc1Cl [F234, Methyl 3-chloro-5-fluoro-6-(2,2,7-trifluorobenzo[d][1,3]dioxol-4-yl)picolinate] the pest or weed control at 140 g/ha was 0 to 29%.

same assay, conditions: post-emergence, 336 h, crabgrass (Digitaria sanguinalis), 14 Days After Application, 140 g ai/ha, read-out: Visual Growth Reduction (%) DIGSA

Compared with O=C(O)c1nc(-c2ccc(C(F)(F)F)cc2Cl)ccc1[N+](=O)[O-] [F252, 6-(2-Chloro-4-(trifluoromethyl)phenyl)-3-nitropicolinic acid], COC(=O)c1nc(-c2ccc(OC(F)F)cc2F)c(F)cc1Cl [F221, Methyl 3-chloro-6-(4-(difluoromethoxy)-2-fluorophenyl)-5-fluoropicolinate] is higher in pest or weed control at 140 g/ha: 30 to 44% for the first, 95 to 100% for the second.

Work on COC(=O)c1nc(-c2ccc(F)c3c2OC(F)(F)O3)c(F)cc1Cl [F234, Methyl 3-chloro-5-fluoro-6-(2,2,7-trifluorobenzo[d][1,3]dioxol-4-yl)picolinate] yielded a pest or weed control at 140 g/ha of 30 to 44%.

same assay, conditions: post-emergence, 336 h, lambsquarters (Chenopodium album), 14 Days After Application, 140 g ai/ha, read-out: Visual Growth Reduction (%) CHEAL

Compared with O=C(O)c1nc(-c2ccc(C(F)(F)F)cc2Cl)ccc1[N+](=O)[O-] [F252, 6-(2-Chloro-4-(trifluoromethyl)phenyl)-3-nitropicolinic acid], COC(=O)c1nc(-c2ccc(OC(F)F)cc2F)c(F)cc1Cl [F221, Methyl 3-chloro-6-(4-(difluoromethoxy)-2-fluorophenyl)-5-fluoropicolinate] is higher in pest or weed control at 140 g/ha: 60 to 74% for the first, 95 to 100% for the second.

COC(=O)c1nc(-c2ccc(F)c3c2OC(F)(F)O3)c(F)cc1Cl [F234, Methyl 3-chloro-5-fluoro-6-(2,2,7-trifluorobenzo[d][1,3]dioxol-4-yl)picolinate] gave a pest or weed control at 140 g/ha of 30 to 44%.

same assay, conditions: post-emergence, 336 h, redroot pigweed (Amaranthus retroflexus), 14 Days After Application, 140 g ai/ha, read-out: Visual Growth Reduction (%) AMARE

Compared with O=C(O)c1nc(-c2ccc(C(F)(F)F)cc2Cl)ccc1[N+](=O)[O-] [F252, 6-(2-Chloro-4-(trifluoromethyl)phenyl)-3-nitropicolinic acid], COC(=O)c1nc(-c2ccc(OC(F)F)cc2F)c(F)cc1Cl [F221, Methyl 3-chloro-6-(4-(difluoromethoxy)-2-fluorophenyl)-5-fluoropicolinate] is higher in pest or weed control at 140 g/ha: 0 to 29% for the first, 95 to 100% for the second.

Compound COC(=O)c1nc(-c2ccc(F)c3c2OC(F)(F)O3)c(F)cc1Cl [F234, Methyl 3-chloro-5-fluoro-6-(2,2,7-trifluorobenzo[d][1,3]dioxol-4-yl)picolinate] has a pest or weed control at 140 g/ha of 0 to 29%.

same assay, conditions: post-emergence, 336 h, wild oat (Avena fatua), 14 Days After Application, 140 g ai/ha, read-out: Visual Growth Reduction (%) AVEFA

First: O=C(O)c1nc(-c2ccc(C(F)(F)F)cc2Cl)ccc1[N+](=O)[O-] [F252, 6-(2-Chloro-4-(trifluoromethyl)phenyl)-3-nitropicolinic acid]
Second: COC(=O)c1nc(-c2ccc(OC(F)F)cc2F)c(F)cc1Cl [F221, Methyl 3-chloro-6-(4-(difluoromethoxy)-2-fluorophenyl)-5-fluoropicolinate]
The pest or weed control at 140 g/ha of the first is lower: 0 to 29% for the first, 75 to 84% for the second.

COC(=O)c1nc(-c2ccc(F)c3c2OC(F)(F)O3)c(F)cc1Cl [F234, Methyl 3-chloro-5-fluoro-6-(2,2,7-trifluorobenzo[d][1,3]dioxol-4-yl)picolinate] showed a pest or weed control at 140 g/ha of 0 to 29%.

same assay, conditions: post-emergence, 336 h, yellow nutsedge (Cyperus esculentus), 14 Days After Application, 140 g ai/ha, read-out: Visual Growth Reduction (%) CYPES

First: O=C(O)c1nc(-c2ccc(C(F)(F)F)cc2Cl)ccc1[N+](=O)[O-] [F252, 6-(2-Chloro-4-(trifluoromethyl)phenyl)-3-nitropicolinic acid]
Second: COC(=O)c1nc(-c2ccc(OC(F)F)cc2F)c(F)cc1Cl [F221, Methyl 3-chloro-6-(4-(difluoromethoxy)-2-fluorophenyl)-5-fluoropicolinate]
The pest or weed control at 140 g/ha of the first is lower: 0 to 29% for the first, 75 to 84% for the second.

Compound COC(=O)c1nc(-c2ccc(F)c3c2OC(F)(F)O3)c(F)cc1Cl [F234, Methyl 3-chloro-5-fluoro-6-(2,2,7-trifluorobenzo[d][1,3]dioxol-4-yl)picolinate] has a pest or weed control at 140 g/ha of 0 to 29%.
